Source: patent US5160483A, “Fragment of TNF-α for promoting wound healing” (The University of Tennessee Research Corporation, priority 1991, dated 1992)
Read-outs that look alike come from different tables or passages of the source.

Key:
[1] = known property of the complete protein; cited from earlier work
fibroblasts [2] = assay: Zigmond-Hirsch checkerboard analysis of fibroblast migration in chemotaxis chamber; format: cell-based
Description: (§1) Solutions of varying concentrations of the fragment of TNF-α comprising amino acids 31 through 68 SEQ ID No.: 1 in phosphate buffered saline (PBS) were added to the lower compartment of chemotaxis chambers. The number of fibroblasts migrating to the lower compartment was counted. The response curve is bell-shaped, with a maximum at 100 nM. An analysis of the effects of varying concentration gradients of the protein fragment (a Zigmond-Hirsch checkerboard analysis) was performed by adding different concentrations of the fragment to the upper and/or lower compartments of a chemotaxis chamber. The number of fibroblasts migrating to the lower surface of each filter was counted.
The fibroblasts migrate from the upper chamber to the lower chamber since there is very little of the fragment in the upper chamber and there is quite a large concentration of the fragment in the lower chamber. This simulates the condition at a wound site where there has been an application of the fragment to the wound. The concentration of the fragment in the surrounding tissue will be quite low compared to the concentration at the wound site. Therefore, the fibroblasts will migrate from the area of low concentration of the fragment to the area of high concentration.

[3] = system: fibroblasts and monocytes; assay: Intradermal injection in guinea pigs; format: in vivo
From the text: The composition accomplishes this without the problems attendant on the previously developed materials. The fragment includes amino acids 31 through 68 SEQ ID No.: 1 of TNF-α which has the sequence: [drawing 1]

fibroblasts [4] = assay: Chemotaxis of fibroblasts in chemotaxis chambers, fragment in lower compartment (FIG. 1); format: cell-based; settings: fragment in PBS in lower compartment of chemotaxis chambers
Description: as §1

## TNF-α
[1]
  cytotoxicity: known to be a cytotoxin

## fragment of TNF-α comprising amino acids 31 through 68 SEQ ID No.: 1: 38-residue synthetic polypeptide, amino acids 31 through 68 of TNF-α (SEQ ID No.: 1), about 3,800 Da (RRANALLANGVELRDNQLVVPSEGLYLIYSQVLFKGQG; Tumor necrosis factor, soluble form; UniProt P01375 107-144, looked up, fragment)
Fibroblasts [2]; upper compartment 0 nM, lower compartment 21 nM
  number of fibroblasts migrating to the lower surface of each filter: 31 ± 4
Fibroblasts [2]; upper compartment 0 nM, lower compartment 41 nM
  number of fibroblasts migrating to the lower surface of each filter: 57 ± 3
Fibroblasts [2]; upper compartment 0 nM, lower compartment 164 nM
  number of fibroblasts migrating to the lower surface of each filter: 73 ± 4
Fibroblasts [2]; upper compartment 0 nM, lower compartment 329 nM
  number of fibroblasts migrating to the lower surface of each filter: 86 ± 13
Fibroblasts [2]; upper compartment 21 nM, lower compartment 0 nM
  number of fibroblasts migrating to the lower surface of each filter: 20 ± 6
Fibroblasts [2]; upper compartment 21 nM, lower compartment 21 nM
  number of fibroblasts migrating to the lower surface of each filter: 9 ± 1
Fibroblasts [2]; upper compartment 21 nM, lower compartment 41 nM
  number of fibroblasts migrating to the lower surface of each filter: 49 ± 7
Fibroblasts [2]; upper compartment 21 nM, lower compartment 164 nM
  number of fibroblasts migrating to the lower surface of each filter: 46 ± 2
Fibroblasts [2]; upper compartment 21 nM, lower compartment 329 nM
  number of fibroblasts migrating to the lower surface of each filter: 67 ± 2
Fibroblasts [2]; upper compartment 41 nM, lower compartment 0 nM
  number of fibroblasts migrating to the lower surface of each filter: 31 ± 2
Fibroblasts [2]; upper compartment 41 nM, lower compartment 21 nM
  number of fibroblasts migrating to the lower surface of each filter: 28 ± 5
Fibroblasts [2]; upper compartment 41 nM, lower compartment 41 nM
  number of fibroblasts migrating to the lower surface of each filter: 26 ± 4
Fibroblasts [2]; upper compartment 41 nM, lower compartment 164 nM
  number of fibroblasts migrating to the lower surface of each filter: 47 ± 5
Fibroblasts [2]; upper compartment 41 nM, lower compartment 329 nM
  number of fibroblasts migrating to the lower surface of each filter: 57 ± 6
Fibroblasts [2]; upper compartment 164 nM, lower compartment 0 nM
  number of fibroblasts migrating to the lower surface of each filter: 14 ± 2
Fibroblasts [2]; upper compartment 164 nM, lower compartment 21 nM
  number of fibroblasts migrating to the lower surface of each filter: 11 ± 1
Fibroblasts [2]; upper compartment 164 nM, lower compartment 41 nM
  number of fibroblasts migrating to the lower surface of each filter: 16 ± 3
Fibroblasts [2]; upper compartment 164 nM, lower compartment 164 nM
  number of fibroblasts migrating to the lower surface of each filter: 22 ± 4
Fibroblasts [2]; upper compartment 164 nM, lower compartment 329 nM
  number of fibroblasts migrating to the lower surface of each filter: 43 ± 3
Fibroblasts [2]; upper compartment 329 nM, lower compartment 0 nM
  number of fibroblasts migrating to the lower surface of each filter: 16 ± 3
Fibroblasts [2]; upper compartment 329 nM, lower compartment 21 nM
  number of fibroblasts migrating to the lower surface of each filter: 10 ± 1
Fibroblasts [2]; upper compartment 329 nM, lower compartment 41 nM
  number of fibroblasts migrating to the lower surface of each filter: 9 ± 1
Fibroblasts [2]; upper compartment 329 nM, lower compartment 164 nM
  number of fibroblasts migrating to the lower surface of each filter: 12 ± 2
Fibroblasts [2]; upper compartment 329 nM, lower compartment 329 nM
  number of fibroblasts migrating to the lower surface of each filter: 8 ± 1
Fibroblasts [2]; varying concentration gradients, Table I
  type of fibroblast migration induced (checkerboard analysis): induced mostly chemotactic migration of fibroblasts
[3]
  amount of connective tissue at the injection site: increase in the amount of connective tissue at the injection site
  migration of fibroblasts and monocytes into the area of the wound: increased migration of fibroblasts and monocytes into the area of the wound
Cytotoxicity
  cytotoxicity: without any showing of cytotoxicity
Fibroblasts [4]
  concentration at the maximum of the bell-shaped fibroblast migration response curve: 100 nM
